Test results taken from PubChem BioAssay AID1421 (Emory University Molecular Libraries Screening Center, 2008).

These compounds were tested against Prostaglandin E2 receptor EP2 subtype (Homo sapiens) (UniProt P43116) (assay: compounds shifting PGE2 potency at EP2 – cell-based, human EP2, PGE2 EC50 shift, dose response (AID 1421)). Settings: EP2-expressing cells, PGE2 EC50 shift by compound; measured here: PGE2 EC50 at 6.7 uM compound.
Sequence of Prostaglandin E2 receptor EP2 subtype (Homo sapiens) (P43116 whole entry, looked up): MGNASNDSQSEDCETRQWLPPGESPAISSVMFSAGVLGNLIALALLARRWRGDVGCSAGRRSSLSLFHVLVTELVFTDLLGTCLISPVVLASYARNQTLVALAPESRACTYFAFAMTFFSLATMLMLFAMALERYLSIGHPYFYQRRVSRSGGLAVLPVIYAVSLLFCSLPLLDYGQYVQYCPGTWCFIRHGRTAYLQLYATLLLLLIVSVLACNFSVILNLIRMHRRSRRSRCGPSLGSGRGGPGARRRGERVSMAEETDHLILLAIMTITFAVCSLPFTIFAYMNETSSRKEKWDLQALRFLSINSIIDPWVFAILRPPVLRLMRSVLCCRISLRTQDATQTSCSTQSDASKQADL
`CCCCOc1ccccc1Cn1c(=O)oc2ccc(C)cc21` showed a PGE2 EC50 with compound of 0.92 nM.
For `Cc1cc(Oc2ccccc2F)nc(NCc2ccccc2)n1`, the PGE2 EC50 with compound was 1.34 nM.
`CCn1c(=NC(=O)c2ccc(S(=O)(=O)N3CCOCC3)cc2)sc2cccc(OC)c21` showed a PGE2 EC50 with compound of 0.91 nM.
`Cc1cc(C(=O)CSc2nc3ccccc3c(=O)n2C)c(C)n1Cc1ccc2c(c1)OCO2` showed a PGE2 EC50 with compound of 3.33 nM.
`O=C(c1cccs1)N1N=C(c2ccccc2)CC1c1ccc(O)cc1` (configuration not stated) showed a PGE2 EC50 with compound of 0.83 nM.
Work on `COc1ccccc1N(C(=O)NCc1ccccc1)C1=NCC(C)S1` (configuration not stated) yielded a PGE2 EC50 with compound of 1.58 nM.
For `Nc1c(C(=O)Nc2ccccc2F)sc2nc(Cc3ccccc3)cc(C(F)(F)F)c12`, the PGE2 EC50 with compound was 0.62 nM.
In the case of `C#CCn1c(S(=O)(=O)Cc2ccccc2Cl)nc(-c2ccccc2)c1-c1ccccc1`, the PGE2 EC50 with compound is reported as 2.66 nM.
Compound `Cn1c(=O)c(NCCc2ccccc2)c2c3c(cccc31)C(=O)c1ccccc1-2` has a PGE2 EC50 with compound of 0.31 nM.
`Clc1ccc(Cn2c(/C=C/c3ccco3)nc3ccccc32)cc1` was tested, and the PGE2 EC50 with compound was 1.38 nM.
For `Cc1cc(SC(C)C(=O)O)nc2ccccc12` (configuration not stated), the PGE2 EC50 with compound was 1.18 nM.
`CC(C)CCn1c(Oc2ccc(Cl)cc2)nc2c1c(=O)n(C)c(=O)n2C` was tested, and the PGE2 EC50 with compound was 0.72 nM.
With `Clc1ccc(COn2c(-c3ccccc3)nc3ccccc32)cc1` the PGE2 EC50 with compound was 2.65 nM.
`Cc1cc2ccccc2nc1SCC(=O)NC1CCCC1` was tested, and the PGE2 EC50 with compound was 1.4 nM.
`CCOC(=O)C1CCN(c2c(C(=O)c3ccccc3)cnc3ccc(Cl)cc23)CC1` showed a PGE2 EC50 with compound of 0.89 nM.
`Cn1c(CNc2ccc(F)cc2)nnc1SCC(=O)NNC(=O)Cc1ccccc1` gave a PGE2 EC50 with compound of 1.63 nM.
Compound `Clc1ccc(-c2ccc(/C=N/Nc3cc(N4CCOCC4)nc(N4CCOCC4)n3)o2)cc1` has a PGE2 EC50 with compound of 2.85 nM.
`CC/C(=C\C1CCCCC1)C(NP(=O)(c1ccccc1)c1ccccc1)c1ccccc1` (configuration not stated) showed a PGE2 EC50 with compound of 1.01 nM.
With `CCOC(=O)c1ccccc1NC(=O)C(C)Oc1ccccc1` (configuration not stated) the PGE2 EC50 with compound was 1.35 nM.
`c1ccc(C2Nc3ccccc3Oc3ccccc32)cc1` (configuration not stated) showed a PGE2 EC50 with compound of 0.85 nM.
For `Cc1c(C(=O)Nc2cccc3cccnc23)oc2ccccc12`, the PGE2 EC50 with compound was 0.72 nM.
`O=C(Cc1ccc(Br)cc1)Nc1ccccc1Sc1ccccc1` showed a PGE2 EC50 with compound of 1.2 nM.
For `CCOC(=O)CSc1nnc2n(C3CCCCC3)c(=O)c3c4c(sc3n12)CCCC4`, the PGE2 EC50 with compound was 1.13 nM.
`CCOC(=O)c1c(CC(C)C)csc1N` showed a PGE2 EC50 with compound of 1.47 nM.
For `CCC(=O)O[C@H]1CCC2C3CCC4=CC(=O)CC[C@]4(C)C3CC[C@@]21C` (some centres not stated), the PGE2 EC50 with compound was 0.76 nM.
`NCCc1c(-c2ccccc2)n(-c2ccccc2)c2ccccc12` was tested, and the PGE2 EC50 with compound was 1.25 nM.
`CCOC(=O)c1oc2ccccc2c1NC(=O)c1ccccc1OC` was tested, and the PGE2 EC50 with compound was 1.25 nM.
With `CC(C)(C)C1CCC(OC(=O)c2ccncc2)CC1` (configuration not stated) the PGE2 EC50 with compound was 1.16 nM.
In the case of `CN(CC(=O)Nc1ccccc1Oc1ccccc1)Cc1ccccc1F`, the PGE2 EC50 with compound is reported as 2.47 nM.
Compound `CC(C)c1ccc(OCC(=O)NC(=S)Nc2ccc3c4c(cccc24)CC3)cc1` has a PGE2 EC50 with compound of 3.13 nM.
Compound `CC(C)c1nc(Cl)c(C#N)c2c1CSC(C)(C)C2` has a PGE2 EC50 with compound of 0.85 nM.
`Cc1noc(C)c1COC(=O)C(c1ccccc1)c1ccccc1` was tested, and the PGE2 EC50 with compound was 1.27 nM.
`C=C[C@@](C)(O)CCC1C(=C)C[C@H](O)C2C(C)(C)CCCC12C` (some centres not stated) showed a PGE2 EC50 with compound of 2.91 nM.
`CCOc1ccc(NC(=O)CSc2ncnc3c2sc2ccccc23)cc1` was tested, and the PGE2 EC50 with compound was 2.67 nM.
`CCOC(=O)c1sc2nccc(N(C)C)c2c1N=CNOCc1ccccc1` was tested, and the PGE2 EC50 with compound was 1.25 nM.
For `NC(=O)CSc1nnc(-c2cccc(S(=O)(=O)N3CCOCC3)c2)n1C1CCCCCC1`, the PGE2 EC50 with compound was 1.37 nM.
`CC1=C/C(=C(/c2ccc(O)c(C)c2)c2ccccc2C(=O)O)C=CC1=O` showed a PGE2 EC50 with compound of 0.96 nM.
For `Clc1ccc(-c2nn3c(-c4ccccc4)nnc3s2)cc1`, the PGE2 EC50 with compound was 0.93 nM.
`Cc1nc(SCCC(=O)O)c2ccccc2n1` gave a PGE2 EC50 with compound of 2.93 nM.
Work on `O=C(c1ccco1)N1N=C(c2ccc(Br)cc2)CC1(O)C(F)(F)F` (configuration not stated) yielded a PGE2 EC50 with compound of 0.84 nM.
With `COc1ccc(C2=NN(C(=O)c3cccs3)C(c3ccccc3O)C2)cc1` (configuration not stated) the PGE2 EC50 with compound was 0.51 nM.
In the case of `CCNc1nc(NCC)nc(SCCOc2ccc(C)cc2)n1`, the PGE2 EC50 with compound is reported as 0.7 nM.
`CSc1nc2ccccc2c(=O)n1Cc1ccc(F)cc1` was tested, and the PGE2 EC50 with compound was 0.87 nM.
In the case of `CCOP(=O)(OCC)c1nc(-c2cccc3ccccc23)oc1NCc1ccc(OC)cc1`, the PGE2 EC50 with compound is reported as 0.72 nM.
`O=C(CC(Sc1ccccc1)c1cccs1)c1ccco1` (configuration not stated) showed a PGE2 EC50 with compound of 0.88 nM.
Compound `COC(=O)c1c(NC(=O)c2ccc(Br)s2)sc2c1CCC2` has a PGE2 EC50 with compound of 1.14 nM.
Work on `COc1ccc(C(=O)c2ccccc2)c(O)c1` yielded a PGE2 EC50 with compound of 0.92 nM.
`O=C(CSc1ncnc2c1oc1ccccc12)Nc1ccccc1F` showed a PGE2 EC50 with compound of 1.86 nM.
`CC(C)C1COC(c2cccn2Cc2ccccc2Cl)=N1` (configuration not stated) gave a PGE2 EC50 with compound of 0.95 nM.
`CC(C)(C)C1CCC(=NNc2ccc(S(N)(=O)=O)cc2[N+](=O)[O-])CC1` (configuration not stated) was tested, and the PGE2 EC50 with compound was 1.01 nM.
`Cc1ccc(C)c(N=C2CCCN2Cc2ccccc2)c1C#N` showed a PGE2 EC50 with compound of 0.61 nM.
`CC(=O)OCC(=O)[C@@]12OC(C)(C)O[C@@H]1C[C@H]1[C@H]3CC=C4C[C@@H](O)CC[C@]4(C)[C@@H]3CC[C@@]12C` was tested, and the PGE2 EC50 with compound was 0.97 nM.
Compound `Cc1ccccc1Nc1cccc2nonc12` has a PGE2 EC50 with compound of 0.64 nM.
With `O=c1c(O)c(-c2ccccc2)oc2ccc3occc3c12` the PGE2 EC50 with compound was 0.74 nM.
With `CCCSc1ncnc2sc(C)c(C)c12` the PGE2 EC50 with compound was 0.89 nM.
In the case of `CCOc1ccc(OCC)c(NC(=O)CN2CCN(c3cccc(C)c3)CC2)c1`, the PGE2 EC50 with compound is reported as 1.02 nM.
For `C=C(C)COc1ccc2c(c1)CC[C@@H]1[C@H]3C/C(=N/O)C(=O)[C@]3(C)CC[C@@H]21`, the PGE2 EC50 with compound was 1.03 nM.
